# Several values for one entry are separate records, joined by “and”; a condition that tells them apart may be missing. Equal values may be shown once. Entries after “also recorded” stand apart in the source; their conditions may differ. Marks after values point to notes of the source that are not given here.
# How the values were obtained:
# [1] = system: advanced NSCLC with PD-L1 ≥50%; test: EMPOWER-Lung 1 patient-reported symptoms, functioning and QoL (EORTC QLQ-C30/QLQ-LC13), ITT population; format: in vivo, human; details: for Definitive deterioration on key symptoms (dyspnea, cough, pain in chest, pain in other body parts, fatigue, nausea/vomiting, appetite loss, constipation, diarrhea): all P<0.05
# Source text: Methods: EMPOWER-Lung 1 was a multicenter, open-label, randomized, controlled, Phase III, pivotal clinical trial of cemiplimab in adults (≥18 years) with: […] (ii) ECOG performance status ≤1; (iii) adequate organ and bone marrow function; and (iv) adequately treated clinically stable brain metastases (historically underrepresented in clinical trials) were allowed to enroll. […] In the intent-to-treat population, mixed-effects repeated measures models (mixed-model repeat measures, MMRM) were used to estimate least squares (LS) mean change from BL on all scales. Follow-up assessment was conducted 14 to 30 days after the last study treatment administration if a patient discontinued, or 14 to 30 days (±7 days) after the last cycle visit if the patient completed treatment. […] Scores range from 0 to 100; high scores on functional domains and low scores on symptoms reflect better outcomes. The QLQ-LC13 is a patient-reported outcome measure that assesses lung cancer disease- and treatment-specific symptoms during the past week. Scores range from 0 to 100; higher scores reflect higher symptom levels. […] MMRM analysis was used to estimate LS mean change from baseline on all scales among patients with a baseline and at least one post-baseline score. […] Hazard ratios (HRs) with 95% confidence intervals (95% CIs) were derived from the survival analyses to determine the likelihood of definitive deterioration. Analyses were based on the intention-to-treat (ITT) population consisting of all randomized patients.
# [2] = system: advanced NSCLC (aNSCLC) with PD-L1 ≥50%; test: EMPOWER-Lung 1 phase 3 study, cemiplimab monotherapy vs platinum-doublet chemotherapy, OS and PFS; format: in vivo, human; details: cemiplimab monotherapy versus platinum-doublet chemotherapy
# Source text: Additional objectives include further characterization of tumor responses, patient-reported outcomes, safety, and pharmacokinetics (PK). Objectives: […] Progression-free survival, the time to tumor progression (based on Response Evaluation Criteria in Solid Tumors version 1.1 [RECIST 1.1] criteria [Eisenhauer) 2009]) or death, was chosen as a primary endpoint because PFS is recognized as a marker of clinical benefit. […] Disease progression will be determined based on the RECIST 1.1 criteria (Eisenhauer 2009). […] A secondary objective of the study includes comparing the ORR of cemiplimab versus platinum-based chemotherapies. Primary Endpoints: The primary endpoints are OS and PFS (per RECIST 1.1, Eisenhauer 2009). Overall survival is defined as the time from randomization to the date of death. A patient who has not died is censored at the last known date of contact. Progression-free survival is defined as the time from randomization to the date of the first documented tumor progression or death due to any cause. Patients are censored according to the following rules: […] Study Design: […] […] Safety is assessed through the occurrence of TEAEs, vital sign evaluation, physical examination, and laboratory analyses. […] […]
# [3] = system: advanced NSCLC with PD-L1 ≥50% and clinically stable treated brain metastases; test: EMPOWER-Lung 1 post-hoc patient reported outcomes (EORTC QLQ-C30/QLQ-LC13) in brain metastases subgroup; format: in vivo, human
# Procedure: Patient Reported Outcomes (PROs): Post-hoc exploratory analyses were conducted to evaluate PROs in this subgroup of aNSCLC patients with PD-L1 ≥50% and clinically stable treated brain metastases at baseline. PROs were assessed at baseline and day 1 of each treatment cycle for the first 6 cycles, and then on day 1 of every third cycle using EORTC QLQ-C30 and QLQ-LC13 questionnaires. Higher scores indicate better functioning, global health status (GHS)/quality of life (QoL), or worse symptom severity. Mixed model for repeated measures analyses were performed to compare overall change from baseline scores between the two treatment arms, while controlling for baseline characteristics. The baseline PRO scores of the cemiplimab arm were broadly similar with the chemotherapy arm.
# [4] = system: advanced NSCLC with PD-L1 ≥50% and brain metastases; test: EMPOWER-Lung 1 phase 3 subgroup analysis: clinical outcomes in patients with treated stable brain metastases; format: in vivo, human
# Source text: Primary Endpoints: The primary endpoints are OS and PFS (per RECIST 1.1, Eisenhauer 2009). Overall survival is defined as the time from randomization to the date of death. A patient who has not died is censored at the last known date of contact. Progression-free survival is defined as the time from randomization to the date of the first documented tumor progression or death due to any cause. Patients are censored according to the following rules: […] Secondary Endpoints: A key secondary endpoint in the study is ORR. Objective response rate is defined as the number of patients with a best overall response (BOR) of confirmed CR or PR divided by the number of patients in the efficacy analysis set. Best overall response is defined as the best overall response (per RECIST 1.1) between the date of randomization and the date of the first objectively documented progression or the date of subsequent anti-cancer therapy, whichever comes first. Other secondary endpoints include DOR and QOL. Duration of response is defined as the time between the date of first response (CR or PR) to the date of the first documented tumor progression (per RECIST 1.1) or death due to any cause. Quality of life is measured by EORTC QLQ-C30 and […]. Further secondary endpoints also include the safety and tolerability of cemiplimab. To evaluate the safety and tolerability of cemiplimab versus platinum-based chemotherapies, safety and tolerability are measured by the incidence of AEs, serious adverse events (SAEs), deaths, and laboratory abnormalities to assess immunogenicity (ADA/Nabs) to cemiplimab and any relationship with drug concentrations, efficacy and safety. Methods: The design of this study is illustrated in FIG. 1. […] Tumor response to therapy was assessed according to RECIST 1.1, measured by CT or MRI. […] All patients received local therapy and needed to be neurologically stable before joining the trial. In patients with a known history of treated brain metastases at baseline, CT or MRI of the brain with contrast (unless contraindicated) was performed at screening (except if performed within 60 days prior to screening). Additional sites of known disease (including CNS) were also imaged at screening. During the treatment and follow-up period, surveillance imaging of the brain was performed every 18 weeks for year 1, and every 24 weeks for year 2, or sooner if clinically indicated.
# advanced NSCLC = details: in vivo
# [5] = system: locally advanced NSCLC (laNSCLC) with PD-L1 ≥50%; test: EMPOWER-Lung 1 subgroup analysis: patients with locally advanced NSCLC; format: in vivo, human
# Source text: Methods: […] Patients with locally advanced non-small cell lung cancer ([…]) were those with Stage IIIB/IIIC disease who were not candidates for definitive concurrent chemoradiotherapy. Study Design: Key eligibility criteria included: (i) treatment-naïve advanced NSCLC; […] (iii) no EGFR, ALK, or ROS1 mutations; […] Stratification factors included: histology (squamous vs non-squamous) and region (Europe, Asia, or ROW). Primary endpoints: OS and PFS. Secondary endpoints: ORR (key), DOR, HRQoL, and safety. The patients had locally advanced NSCLC, including those with Stage IIIB/IIIC disease who were not candidates for treatment with definitive concurrent chemoradiotherapy or had recurred after initial treatment with concurrent chemoradiotherapy.
# [6] = Cemiplimab minus chemo, QLQ-C30, ITT
# [7] = cemiplimab vs chemotherapy, ITT
# [8] = after baseline, brain metastases subgroup, n=34 per arm
# [9] = brain metastases subgroup, n=34 per arm
# [10] = brain metastases subgroup, cemiplimab vs chemotherapy
# [11] = cemiplimab n=45, chemotherapy n=42
# [12] = cemiplimab n=45, chemotherapy n=42, listed as cemiplimab
substance,measurement,setting,value
cemiplimab,Difference in LS mean change from BL (95% CI): Cognitive functioning,[1]; [6],2.5 (0.4-4.5)*
same,Difference in LS mean change from BL (95% CI): Emotional functioning,[1]; [6],3.4 (1.0-5.9)*
same,Difference in LS mean change from BL (95% CI): GHS/QoL,[1]; [6],5.4 (2.7-8.1)*
same,Difference in LS mean change from BL (95% CI): Physical functioning,[1]; [6],4.2 (1.6-6.7)*
same,Difference in LS mean change from BL (95% CI): Role functioning,[1]; [6],3.3 (0.2-6.3)*
same,Difference in LS mean change from BL (95% CI): Social functioning,[1]; [6],5.2 (2.5-7.9)*
same,LS mean change (SE) from baseline in GHS/QOL across all timepoints,"[1]; MMRM analysis, EORTC QLQ-C30, C2 to C15",7.1 (1.0)
same,"Definitive deterioration on key symptoms (dyspnea, cough, pain in chest, pain in other body parts, fatigue, nausea/vomiting, appetite loss, constipation, diarrhea)",[1]; cemiplimab versus chemotherapy,lower likelihood of definitive deterioration
same,"Definitive deterioration on key symptoms (dyspnea, cough, pain in chest, pain in other body parts, fatigue, nausea/vomiting, appetite loss, constipation, diarrhea)","[1]; cemiplimab versus chemotherapy, listed as cemiplimab",significantly lower risk of definitive deterioration
same,Definitive deterioration of treatment-related symptoms of peripheral neuropathy and alopecia,"[1]; cemiplimab versus chemotherapy, both P<0.05",lower likelihood of definitive deterioration; also recorded: lower risk of definitive deterioration
same,HR (95% CI) for definitive deterioration: Cognitive functioning,[1]; [7],0.64 (0.44-0.93)*
same,HR (95% CI) for definitive deterioration: Emotional functioning,[1]; [7],0.49 (0.30-0.79)*
same,HR (95% CI) for definitive deterioration: GHS/QoL,[1]; [7],0.73 (0.52-1.03)
same,HR (95% CI) for definitive deterioration: Physical functioning,[1]; [7],0.59 (0.42-0.84)*
same,HR (95% CI) for definitive deterioration: Role functioning,[1]; [7],0.65 (0.46-0.92)*
same,HR (95% CI) for definitive deterioration: Social functioning,[1]; [7],0.50 (0.35-0.72)*
same,Overall survival hazard ratio,[2],0.57
same,Progression-free survival hazard ratio,[2],0.54
same,Difference in overall change from baseline in appetite loss,[3]; cemiplimab versus chemotherapy,−7.43
same,Difference in overall change from baseline in emotional functioning,[3]; cemiplimab versus chemotherapy,7.27
same,Difference in overall change from baseline in role functioning,[3]; cemiplimab versus chemotherapy,8.59
same,Difference in overall change from baseline in symptoms of fatigue,[3]; cemiplimab versus chemotherapy,−8.19
same,"Overall change from baseline in GHS/QOL, difference cemiplimab versus chemotherapy",[3]; mixed model for repeated measures,9.35
same,"CNS intracranial disease progression, % of patients",[4]; [8],5.9%
same,"CNS intracranial disease progression, patients",[4]; [8],two
same,"Best overall tumor response: Complete response, %",[4]; [9],(8.8) %
same,"Best overall tumor response: Non-evaluable, %",[4]; [9],(11.8) %
same,"Best overall tumor response: Partial response, %",[4]; [9],(32.4) %
same,"Best overall tumor response: Progressive disease, %",[4]; [9],(20.6) %
same,"Best overall tumor response: Stable disease, %",[4]; [9],(26.5) %
same,"Extra-CNS disease progression, % of patients",[4]; [9],26.5%
same,"Extra-CNS disease progression, patients",[4]; [9],9 patients
same,"Intracranial disease progression due to a new tumor, % of patients",[4]; [9],2.9%
same,"Intracranial disease progression due to a new tumor, patients",[4]; [9],one
same,"Intracranial disease progression due to an existing tumor, % of patients",[4]; [9],5.9%
same,"Intracranial disease progression due to an existing tumor, patients",[4]; [9],two
same,ORR,[4]; [9],41.2%
same,"OS, median","[4]; brain metastases subgroup, n=34 per arm, cemiplimab 350 mg IV Q3W or investigator's choice chemotherapy",18.7 months
same,ORR,"[4]; brain metastases subgroup, n=34 per arm, listed as cemiplimab",41.2%
same,"PFS, median","[4]; brain metastases subgroup, n=34 per arm, per independent review committee",10.4 months
same,ORR odds ratio (95% CI),[4]; [10],6.9 (1.7-27.8); P = 0.0034*
same,OS HR (95% CI),[4]; [10],0.17 (0.04-0.76); P = 0.0091
same,PFS HR (95% CI),[4]; [10],0.45 (0.22-0.92); P = 0.0231
same,Median KM estimation of brain metastasis PFS,"[4]; cemiplimab versus chemotherapy, FIG. 4",superior
same,"Patients with ≥1 PRBC transfusions, %",advanced NSCLC,1.1%
same,"Patients with ≥1 platelet transfusions, %",advanced NSCLC,0.3%
same,SAE-associated hospitalization rate,advanced NSCLC,33.2 per 100 patient-years
same,12-month OS,[5]; FIG. 9,78.5%
same,12-month PFS,[5]; FIG. 10,38.5%
same,"Best overall response: CR, %",[5]; [11],(2.2) %
same,"Best overall response: Non-evaluable, %",[5]; [11],(17.8) %
same,"Best overall response: PD, %",[5]; [11],(15.6) %
same,"Best overall response: Partial response, %",[5]; [11],(42.2) %
same,"Best overall response: Stable disease, %",[5]; [11],(22.2) %
same,"ORR, %",[5]; [11],(44.4) %
same,"PFS, median",[5]; [11],8.4 months
same,"ORR, %",[5]; [12],44% and 44.4%
same,"OS, median",[5]; [12],not yet reached
same,ORR odds ratio (95% CI),[5]; cemiplimab vs chemotherapy,1.8 (0.7-4.2); *P = 0.20
same,OS HR (95% CI),[5]; cemiplimab vs chemotherapy,0.5 (0.2-1.1); P = 0.0875
same,PFS HR (95% CI),[5]; cemiplimab vs chemotherapy,0.5 (0.3-0.9); P = 0.0153
same,Reduction in the risk of disease progression,[5]; cemiplimab vs chemotherapy,51%
same,PFS HR (95% CI),"[5]; cemiplimab vs chemotherapy, listed as cemiplimab",0.49
same,"KM estimated DOR, median","[5]; responders: cemiplimab n=20, chemotherapy n=13",12.5 months
